This note sets out measurements from patent US10280150B2 (FORMA TM2, Inc., priority 2014, dated 2019).

For test [1], the target named is IDH1-R132H recombinant protein (Homo sapiens (Human), UniProt O75874, R132H). Kind of test: IDH1-R132H enzymatic assay (inhibition of NADPH consumption, diaphorase/resazurin readout). In kind it is biochemical. The following applies: read-out: Enzyme IDH1 R132H IC50 (Range). A digest of the protocol:
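Compound was preincubated 15 min at 25 °C with 30 nM IDH1-R132H or 10 nM IDH1-R132C in Tris pH 7.5 buffer with MgCl2, BSA and Triton X-100. Reaction with 2 mM α-ketoglutarate and 20 μM NADPH (solution concentrations) ran 45 min at 25 °C. Remaining NADPH was detected via diaphorase/resazurin fluorescence (ex 535/em 590 nm), and IC50 came from four-parameter fits.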

Test [2] has as its target IDH1-R132C recombinant protein (Homo sapiens (Human), UniProt O75874, R132C). As to the kind of experiment: IDH1-R132C enzymatic assay (inhibition of NADPH consumption, diaphorase/resazurin readout). In kind it is biochemical. The following applies: read-out: Enzyme IDH1 R132C IC50 (Range). Here is the method: Assays were performed in a 384-well black plate. An aliquot of 250 nL of compound was incubated with 10 μL of 30 nM IDH1-R132H or 10 nM IDH1-R132C recombinant protein in assay buffer (50 mM Tris pH=7.5, 150 mM NaCl, 5 mM MgCl2, 0.1% (w/v) Bovine Serum Albumin, and 0.01% Triton X-100) in each well at 25° C. for 15 minutes. After the plate was centrifuged briefly, an aliquot of 10 μL of 2 mM α-ketoglutarate and 20 μM NADPH solution prepared in assay buffer was then added to each well and the reaction was maintained at 25° C. for 45 minutes. An aliquot of 10 μL of diaphorase solution (0.15 U/mL diaphorase and 30 µM Resazurin in assay buffer) was added to each well. The plate was maintained at 25° C. for 15 minutes and then read on a plate reader with excitation and emission wavelengths at 535 nm and 590 nm, respectively. The IC50 of a given compound was calculated by fitting the dose response curve of inhibition of NADPH consumption at a given concentration with the four parameter logistic equation.
(Resazurin is reduced to fluorescent resorufin, in cell work by metabolically active cells.)

Test [3] has as its system HCT116 isogenic IDH1-R132H mutant cells. Kind of test: Cellular 2-HG assay using HCT116 mutant IDH1 cells (R132H), RapidFire mass spectrometry. In kind it is cell-based. Particulars: Homo sapiens, read-out: HCT116 IDH1 R132H IC50 (Range). The method, then:
(§1) Example 106—Cellular 2-HG assay using HCT116 mutant IDH1 cells
(§2) HCT116 isogenic IDH1-R132H and IDH1-R132C mutant cells were cultured in growth media (McCoy's 5 A, 10% fetal bovine serum, 1× antibiotic-antimycotic solution and 0.3 mg/mL G418) in 5% CO2 in an incubator at 37° C. To prepare the assay, cells were trypsinized and resuspended in assay media (McCoy's 5 A with no L-glutamine, 10% fetal bovine serum, 1× antibiotic-antimycotic solution and 0.3 mg/mL G418). An aliquot of 10,000 cells/100 μL was transferred to each well of a clear 96-well tissue culture plate. The cells were incubated in 5% CO2 at 37° C. in an incubator overnight to allow for proper cell attachment. An aliquot of 50 μL of compound containing assay media were then added to each well and the assay plate was kept in 5% CO2 at 37° C. in an incubator for 24 hours. The media was then removed from each well and 150 μL of a methanol/water mixture (80/20 v/v) was added to each well. The plates were kept at −80° C. freezer overnight to allow for complete cell lysis. An aliquot of 125 μL of extracted supernatant was analyzed by RapidFire high-throughout-mass spectrometry (Agilent) to determine the cellular 2-HG level. The IC50 of a given compound was calculated by fitting the dose response curve of cellular 2-HG inhibition at a given concentration with the four parameter logistic equation.

Test [4] relates to HCT116 isogenic IDH1-R132C mutant cells. Kind of test: Cellular 2-HG assay using HCT116 mutant IDH1 cells (R132C), RapidFire mass spectrometry. In kind it is cell-based. Particulars: Homo sapiens, read-out: HCT116 IDH1 R132C IC50 (Range). Here is the method: as §1, §2
[5] abbreviates: HCT-116, cellular 2-HG level, HCT116 IDH1-R132H cells, 24 hours.
[6] abbreviates: HCT-116, cellular 2-HG level, HCT116 IDH1-R132C cells, 24 hours.

Like-named read-outs stand apart in the source and are kept apart here.

Sequence of IDH1-R132C recombinant protein (O75874 whole entry R132C): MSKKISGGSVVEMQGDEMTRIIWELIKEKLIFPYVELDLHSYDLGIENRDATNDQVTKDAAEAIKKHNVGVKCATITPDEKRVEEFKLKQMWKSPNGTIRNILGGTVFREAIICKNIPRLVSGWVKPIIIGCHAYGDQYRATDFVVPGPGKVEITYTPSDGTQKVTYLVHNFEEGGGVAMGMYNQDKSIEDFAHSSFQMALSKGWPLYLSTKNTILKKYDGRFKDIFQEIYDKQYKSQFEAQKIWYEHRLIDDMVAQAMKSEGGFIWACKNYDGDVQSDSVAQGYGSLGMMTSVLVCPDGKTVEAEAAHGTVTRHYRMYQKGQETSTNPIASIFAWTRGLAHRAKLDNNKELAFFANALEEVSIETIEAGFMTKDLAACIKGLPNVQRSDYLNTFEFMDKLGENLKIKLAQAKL
Sequence of IDH1-R132H recombinant protein (O75874 whole entry R132H): as the sequence (O75874 whole entry R132C) above, with C132H counted along it

What is called IC50 is the concentration at which inhibition is half-maximal. Take `C[C@H](Nc1nccc(N2CCCS2(=O)=O)n1)c1cc2cc(Cl)ccc2[nH]c1=O` [Compound I-12, (S)-6-Chloro-3-(1-((4-(1,1-dioxidoisothiazolidin-2-yl)pyrimidin-2-yl)amino)ethyl)quinolin-2(1H)-one]: the IC50 was 100 to 1000 nM in test [1], 1000 to 10000 nM in test [2], 100 to 1000 nM in test [3] (setting [5]) and 100 to 1000 nM in test [4] (setting [6]).
On to `CC(Nc1nccc(N(C(C)C)S(C)(=O)=O)n1)c1cc2cc(Cl)ccc2[nH]c1=O` (stereo not shown) [Compound I-20], for which the IC50 in test [1], in test [2], in test [3] (setting [5]) and in test [4] (setting [6]) was 100 to 1000 nM in each case.
With `COC(=O)Nc1ccnc(N[C@@H](C)c2cc3cc(Cl)ccc3[nH]c2=O)n1` [Compound I-22, (S)-Methyl (2-((1-(6-chloro-2-oxo-1,2-dihydroquinolin-3-yl)ethyl)amino)pyrimidin-4-yl) carbamate], the IC50 in test [1] was below 100 nM; in test [2] it was 100 to 1000 nM; in test [3] (setting [5]) it was below 100 nM; in test [4] (setting [6]) it was below 100 nM.
As to `CC(C)OC(=O)Nc1ccnc(N[C@@H](C)c2cc3cc(Cl)ccc3[nH]c2=O)n1` [Compound I-23, (S)-Isopropyl (2-((1-(6-chloro-2-oxo-1,2-dihydroquinolin-3-yl)ethyl)amino)pyrimidin-4-yl)carbamate], the results for the IC50 in test [1], in test [3] (setting [5]) and in test [4] (setting [6]) were 1000 to 10000 nM, 100 to 1000 nM and 100 to 1000 nM, respectively.
On to `CC(=O)Nc1ccnc(N[C@@H](C)c2cc3cc(Cl)ccc3[nH]c2=O)n1` [Compound I-25, (S)—N-(2-((1-(6-Chloro-2-oxo-1,2-dihydroquinolin-3-yl)ethyl)amino)pyrimidin-4-yl)acetamide], for which the half-inhibitory concentration (IC50) in test [1], in test [2], in test [3] (setting [5]) and in test [4] (setting [6]) was below 100 nM in each case.
For the molecule `C[C@H](Nc1nccc(NC(=O)C2CC2)n1)c1cc2cc(Cl)ccc2[nH]c1=O` [Compound I-29], the IC50 in test [1] is below 100 nM; in test [2], below 100 nM; in test [3] (setting [5]) it was 100 to 1000 nM; in test [4] (setting [6]), 100 to 1000 nM.
On to `CCC(=O)Nc1ccnc(N[C@@H](C)c2cc3cc(Cl)ccc3[nH]c2=O)n1` [Compound I-33], for which the IC50 in test [1] is below 100 nM; in test [2], below 100 nM; in test [3] (setting [5]), below 100 nM; in test [4] (setting [6]) it was 100 to 1000 nM.
`C[C@H](Nc1ncc(C#N)c(N)n1)c1cc2cc(Cl)ccc2[nH]c1=O` [Compound I-37]: the IC50 in test [1] is 100 to 1000 nM; in test [3] (setting [5]), 100 to 1000 nM; in test [4] (setting [6]) it was 1000 to 10000 nM.
Turning to `C[C@H](Nc1ncc(C#N)c(C2CC2)n1)c1cc2cc(Cl)ccc2[nH]c1=O` [Compound I-40, (S)-2-((1-(6-Chloro-2-oxo-1,2-dihydroquinolin-3-yl)ethyl)amino)-4-cyclopropylpyrimidine-5-carbonitrile], the IC50 was below 100 nM in test [1], 1000 to 10000 nM in test [3] (setting [5]) and 100 to 1000 nM in test [4] (setting [6]).
Consider `CC(C)[C@H]1COC(=O)N1c1ccnc(N[C@@H](C)c2cc3cc(Cl)ccc3[nH]c2=O)n1` [Compound I-42, (S)-3-(2-(((S)-1-(6-Chloro-2-oxo-1,2-dihydroquinolin-3-yl)ethyl)amino)pyrimidin-4-yl)-4-isopropyloxazolidin-2-one], for which the IC50 in test [1], in test [2] and in test [4] (setting [6]) was below 100 nM throughout.
In the case of `Cc1c(-c2ccnc(N[C@@H](C)c3cc4cc(Cl)ccc4[nH]c3=O)n2)cnn1C` [Compound I-74], the IC50 in test [1], in test [3] (setting [5]) and in test [4] (setting [6]) was 100 to 1000 nM each time.
As for `C[C@H](Nc1nccc(-c2ccnn2C2CCCCO2)n1)c1cc2cc(Cl)ccc2[nH]c1=O` (stereo partly shown) [Compound I-79], the values for the IC50 in test [1], in test [3] (setting [5]) and in test [4] (setting [6]) were below 100 nM, 1000 to 10000 nM and 1000 to 10000 nM, respectively.
As to `Cc1cscc1-c1ccnc(N[C@@H](C)c2cc3cc(Cl)ccc3[nH]c2=O)n1` [Compound I-80], the IC50 in test [1] is below 100 nM; in test [3] (setting [5]), 100 to 1000 nM; in test [4] (setting [6]), 100 to 1000 nM.
On to `C[C@H](Nc1nccc(-c2cccn2C)n1)c1cc2cc(Cl)ccc2[nH]c1=O` [Compound I-81], for which the IC50 is below 100 nM in test [1], 100 to 1000 nM in test [3] (setting [5]) and 100 to 1000 nM in test [4] (setting [6]).
On to `C[C@H](Nc1nccc(N2CCN(C)C2=O)n1)c1cc2cc(Cl)ccc2[nH]c1=O` [Compound I-124], for which the IC50 in test [1], in test [3] (setting [5]) and in test [4] (setting [6]) was 100 to 1000 nM each time.
For the molecule `COc1cc2[nH]c(=O)c([C@H](C)Nc3nccc(N4CCOC4=O)n3)cc2cc1Cl` [Compound I-147], the 50% inhibitory concentration (IC50) in test [1], in test [3] (setting [5]) and in test [4] (setting [6]) was below 100 nM throughout.
As for `Cc1nc(N[C@@H](C)c2cc3cc(Cl)c(OCc4ccccn4)cc3[nH]c2=O)ncc1C#N` [Compound I-153], the IC50 in test [1], in test [2] and in test [4] (setting [6]) was below 100 nM throughout.
Consider `COc1nc(N[C@@H](C)c2nc3cc(Cl)ccc3[nH]c2=O)ncc1C#N` [Compound I-156, (S)-2-((1-(7-Chloro-3-oxo-3,4-dihydroquinoxalin-2-yl)ethyl)amino)-4-methoxy pyrimidine-5-carbonitrile], for which the IC50 was 100 to 1000 nM in test [2]; below 100 nM in test [3] (HCT-116, 24 h); 100 to 1000 nM in test [4] (HCT-116, 24 h).
`CC(C)(Nc1nccc(N2CCOC2=O)n1)c1cc2cc(Cl)ccc2[nH]c1=O` [Compound I-170]: the IC50 in test [1] lay within 100 to 1000 nM; in test [3] (setting [5]), 100 to 1000 nM; in test [4] (setting [6]), 1000 to 10000 nM.
Turning to `COc1nc(N[C@H](C)c2cc3cc(Cl)ccc3[nH]c2=O)ncc1C#N` [Compound I-174], the IC50 in test [1] and in test [2] was 1000 to 10000 nM in each case.
Regarding `COc1nc(N[C@@H](C)c2cc3cc(Cl)c(OC(C)C)cc3[nH]c2=O)ncc1C#N` [Compound I-175, (S)-2-((1-(6-chloro-7-isopropoxy-2-oxo-1,2-dihydroquinolin-3-yl)ethyl)amino)-4-methoxypyrimidine-5-carbonitrile], the IC50 in test [1] and in test [2] was below 100 nM in each case.
`COc1nc(N[C@@H](C)c2cc3cc(Cl)c(C4CC4)cc3[nH]c2=O)ncc1C#N` [Compound I-176, (S)-2-((1-(6-chloro-7-cyclopropyl-2-oxo-1,2-dihydroquinolin-3-yl)ethyl)amino)-4-methoxypyrimidine-5-carbonitrile]: the IC50 was below 100 nM in test [1] and 100 to 1000 nM in test [2].
For `COc1nc(N[C@@H](C)c2cc3ncccc3[nH]c2=O)ncc1C#N` [Compound I-177, (S)—4-methoxy-2-((1-(2-oxo-1,2-dihydro-1,5-naphthyridin-3-yl)ethyl)amino)pyrimidine-5-carbonitrile] the same measures were 1000 to 10000 nM and above 10000 nM.
Take `C[C@H](Nc1ncc(C#N)c(=O)[nH]1)c1cc2cc(Cl)ccc2[nH]c1=O` [Compound I-178, (S)-2-((1-(6-chloro-2-oxo-1,2-dihydroquinolin-3-yl)ethyl)amino)-6-oxo-1,6-dihydropyrimidine-5-carbonitrile]: the figures for the IC50 in test [1] and in test [2] were below 100 nM and 1000 to 10000 nM, respectively.
Regarding `C[C@H](Nc1nccc(-n2nnnc2C2CC2)n1)c1cc2cc(Cl)ccc2[nH]c1=O` [Compound I-183, (S)-6-chloro-3-(1-((4-(5-cyclopropyl-1H-tetrazol-1-yl)pyrimidin-2-yl)amino)ethyl)quinolin-2(1H)-one], the results for the IC50 in test [1], in test [2] and in test [4] (setting [6]) were below 100 nM, below 100 nM and 100 to 1000 nM, respectively.
